From patent US20180244611A1, “Modulators of the Cystic Fibrosis Transmembrane Conductance Regulator Protein and Methods of Use” (AbbVie S.à.r.l., priority 2017, published 2018)

What was measured:
F508delCFTR [1] = biological target: T1, F508delCFTR (Homo sapiens, UniProt P13569, DEL508-508); test: Cell Surface Expression-Horse Radish Peroxidase (CSE-HRP) assay, test compound without co-corrector; assay type: cell-based; conditions: for Emax: maximum at any tested concentration, normalized to positive control, without co-corrector; for EC50: test compound without co-corrector;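 on Emax: percent of on-plate 2 µM positive control corrector response over DMSO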
T1 construct: expressed in transfected cells; host or cells: CFBE41o- human lung-derived epithelial cells (CFBE41o-F508delCFTR-HRP), doxycycline-inducible
In short: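 CFBE41o- cells expressing F508delCFTR with HRP in the fourth exofacial loop, induced with 0.5 μg/mL doxycycline for 72 h at 37° C, then exposed to compound alone for 18-24 h at 33° C, 8-point 3-fold series from 20 μM. Surface HRP read by luminol luminescence, normalized to positive corrector control versus DMSO; EC50 from variable-slope sigmoidal fit of three replicate plates.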

F508delCFTR [2] = biological target: T1, F508delCFTR; test: Cell Surface Expression-Horse Radish Peroxidase (CSE-HRP) assay, test compound with co-corrector; assay type: cell-based; conditions: with 2 μM co-corrector; for Maximum % activity (with co-corrector): maximum at any tested concentration, normalized to positive control;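 on Maximum % activity (with co-corrector): percent of 2 µM positive control corrector over DMSO; co-corrector is that same compound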
In short: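 CFBE41o- cells expressing F508delCFTR with HRP in the fourth exofacial loop, induced with 0.5 μg/mL doxycycline for 72 h, then treated 18-24 h at 33° C. with compound (8 points, top 20 μM, 3-fold) plus 2 μM co-corrector. Surface HRP read by luminol luminescence; activity normalised to positive control, EC50 from variable-slope sigmoidal fit.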

T1 sequence (P13569 with tags, fused parts or gaps DEL508-508): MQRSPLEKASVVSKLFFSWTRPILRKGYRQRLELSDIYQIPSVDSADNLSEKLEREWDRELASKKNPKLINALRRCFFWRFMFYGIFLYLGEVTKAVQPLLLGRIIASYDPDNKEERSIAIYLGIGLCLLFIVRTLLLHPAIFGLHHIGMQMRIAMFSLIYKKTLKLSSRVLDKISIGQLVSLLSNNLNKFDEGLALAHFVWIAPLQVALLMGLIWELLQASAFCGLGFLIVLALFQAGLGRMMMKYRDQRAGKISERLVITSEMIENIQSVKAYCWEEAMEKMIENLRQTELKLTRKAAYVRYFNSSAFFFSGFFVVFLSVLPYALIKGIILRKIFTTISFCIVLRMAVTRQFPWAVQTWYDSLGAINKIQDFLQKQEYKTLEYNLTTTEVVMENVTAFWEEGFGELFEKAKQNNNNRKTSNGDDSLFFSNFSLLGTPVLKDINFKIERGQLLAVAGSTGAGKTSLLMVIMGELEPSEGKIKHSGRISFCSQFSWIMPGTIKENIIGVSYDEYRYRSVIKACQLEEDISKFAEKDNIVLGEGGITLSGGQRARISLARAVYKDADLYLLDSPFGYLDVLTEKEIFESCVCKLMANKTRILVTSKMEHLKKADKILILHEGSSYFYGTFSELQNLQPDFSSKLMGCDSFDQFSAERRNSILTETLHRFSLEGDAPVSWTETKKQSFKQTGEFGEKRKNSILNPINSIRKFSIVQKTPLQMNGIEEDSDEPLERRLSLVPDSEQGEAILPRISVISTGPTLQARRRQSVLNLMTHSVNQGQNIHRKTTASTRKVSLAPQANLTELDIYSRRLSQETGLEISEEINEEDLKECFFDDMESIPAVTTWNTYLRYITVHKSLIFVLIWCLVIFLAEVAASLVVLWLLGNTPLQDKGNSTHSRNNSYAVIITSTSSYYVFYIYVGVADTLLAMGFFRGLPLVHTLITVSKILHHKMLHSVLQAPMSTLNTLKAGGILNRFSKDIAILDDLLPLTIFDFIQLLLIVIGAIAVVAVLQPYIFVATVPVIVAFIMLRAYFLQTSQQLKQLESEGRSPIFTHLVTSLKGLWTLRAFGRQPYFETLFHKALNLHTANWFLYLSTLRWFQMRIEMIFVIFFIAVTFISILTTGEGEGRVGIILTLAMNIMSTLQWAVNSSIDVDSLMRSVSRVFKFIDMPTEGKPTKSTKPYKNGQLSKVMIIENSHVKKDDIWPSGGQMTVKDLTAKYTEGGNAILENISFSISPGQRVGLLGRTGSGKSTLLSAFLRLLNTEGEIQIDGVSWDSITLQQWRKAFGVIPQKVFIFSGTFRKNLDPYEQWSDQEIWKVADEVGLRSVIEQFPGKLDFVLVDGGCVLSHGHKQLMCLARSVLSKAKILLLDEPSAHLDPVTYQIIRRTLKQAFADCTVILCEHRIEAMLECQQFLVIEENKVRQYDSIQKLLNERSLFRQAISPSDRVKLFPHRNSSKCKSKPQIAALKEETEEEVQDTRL

## COc1ccc(Br)c2c1C(C(=O)NS(=O)(=O)c1cccc3c(OC)cccc13)CC2 (centres unmarked) [II-133]
F508delCFTR [1]
  Emax: ≥ 150%
  EC50: 3 to 10 µM
F508delCFTR [2]
  Maximum % activity (with co-corrector): +++ (≥350)
  EC50: 3 to 10 µM

## COC(=O)c1ccc(OC)c2c1CCC2C(=O)NS(=O)(=O)c1cccc2ccccc12 (centres unmarked) [II-134]
F508delCFTR [1]
  Emax: ≥ 150%
  EC50: 3 to 10 µM
F508delCFTR [2]
  Maximum % activity (with co-corrector): +++ (≥350)
  EC50: < 3 µM

## COC(=O)c1cccc2c(S(=O)(=O)NC(=O)C3CCc4c(Br)ccc(OC)c43)cccc12 (centres unmarked) [II-135]
F508delCFTR [1]
  Emax: ≥ 150%
  EC50: 3 to 10 µM
F508delCFTR [2]
  Maximum % activity (with co-corrector): +++ (≥350)
  EC50: 3 to 10 µM

## O=C(NS(=O)(=O)c1cccc2ccccc12)C1CCCc2c(Cl)ccc(OCCN3CCOCC3)c21 (centres unmarked) [II-136]
F508delCFTR [1]
  Emax: ≥ 150%
  EC50: 3 to 10 µM
F508delCFTR [2]
  Maximum % activity (with co-corrector): +++ (≥350)
  EC50: 3 to 10 µM

## CC1(C(=O)NS(=O)(=O)Cc2ccccc2)CCc2c(Cl)cccc21 (centres unmarked) [III-3]
F508delCFTR [1]
  Emax: < 50%
  EC50: ≥ 10 µM
F508delCFTR [2]
  Maximum % activity (with co-corrector): + (<150)
  EC50: ≥ 10 µM

## Cc1nn(C)c(C)c1S(=O)(=O)NC(=O)C1CCc2c(Cl)cccc21 (centres unmarked) [III-4]
F508delCFTR [1]
  Emax: < 50%
  EC50: ≥ 10 µM
F508delCFTR [2]
  Maximum % activity (with co-corrector): + (<150)
  EC50: ≥ 10 µM

## COCCS(=O)(=O)NC(=O)C1CCc2c(Cl)cccc21 (centres unmarked) [III-5]
F508delCFTR [1]
  Emax: < 50%
  EC50: ≥ 10 µM
F508delCFTR [2]
  Maximum % activity (with co-corrector): + (<150)
  EC50: ≥ 10 µM

## CCCS(=O)(=O)NC(=O)C1CCc2c(Cl)cccc21 (centres unmarked) [III-6]
F508delCFTR [1]
  Emax: < 50%
  EC50: ≥ 10 µM
F508delCFTR [2]
  Maximum % activity (with co-corrector): + (<150)
  EC50: ≥ 10 µM

## COc1cccc2c1CC(C(=O)NS(=O)(=O)c1ccccc1C)CC2 (centres unmarked) [III-7]
F508delCFTR [1]
  Emax: < 50%
  EC50: ≥ 10 µM
F508delCFTR [2]
  Maximum % activity (with co-corrector): ++ (≥150 and <350)
  EC50: 3 to 10 µM

## COc1ccc2c(c1)CCC2C(=O)NS(=O)(=O)c1ccccc1C (centres unmarked) [III-9]
F508delCFTR [1]
  Emax: < 50%
  EC50: ≥ 10 µM
F508delCFTR [2]
  Maximum % activity (with co-corrector): + (<150)
  EC50: ≥ 10 µM

## Cc1ccccc1S(=O)(=O)NC(=O)C1CCc2ccccc2C1 (centres unmarked) [III-10]
F508delCFTR [1]
  Emax: < 50%
  EC50: ≥ 10 µM
F508delCFTR [2]
  Maximum % activity (with co-corrector): + (<150)
  EC50: ≥ 10 µM

## COc1cccc2c1CCC2C(=O)NS(=O)(=O)c1c(C)nn(C)c1C (centres unmarked) [III-11]
F508delCFTR [1]
  Emax: < 50%
  EC50: ≥ 10 µM
F508delCFTR [2]
  Maximum % activity (with co-corrector): + (<150)
  EC50: ≥ 10 µM

## COc1ccccc1S(=O)(=O)NC(=O)C1CCc2c(OC)cccc21 (centres unmarked) [III-12]
F508delCFTR [1]
  Emax: < 50%
  EC50: ≥ 10 µM
F508delCFTR [2]
  Maximum % activity (with co-corrector): + (<150)
  EC50: 3 to 10 µM

## COc1cccc2c1CCC2C(=O)NS(=O)(=O)c1ccc(C)cn1 (centres unmarked) [III-13]
F508delCFTR [1]
  Emax: < 50%
  EC50: ≥ 10 µM
F508delCFTR [2]
  Maximum % activity (with co-corrector): + (<150)
  EC50: ≥ 10 µM

## COc1cccc2c1CCC2C(=O)NS(=O)(=O)C1CCOCC1 (centres unmarked) [III-14]
F508delCFTR [1]
  Emax: < 50%
  EC50: ≥ 10 µM
F508delCFTR [2]
  Maximum % activity (with co-corrector): + (<150)
  EC50: ≥ 10 µM

## COCCCS(=O)(=O)NC(=O)C1CCc2c(OC)cccc21 (centres unmarked) [III-15]
F508delCFTR [1]
  Emax: < 50%
  EC50: ≥ 10 µM
F508delCFTR [2]
  Maximum % activity (with co-corrector): + (<150)
  EC50: ≥ 10 µM

## COCCS(=O)(=O)NC(=O)C1CCc2c(OC)cccc21 (centres unmarked) [III-16]
F508delCFTR [1]
  Emax: < 50%
  EC50: ≥ 10 µM
F508delCFTR [2]
  Maximum % activity (with co-corrector): + (<150)
  EC50: ≥ 10 µM

## CCCS(=O)(=O)NC(=O)C1CCc2c(OC)cccc21 (centres unmarked) [III-17]
F508delCFTR [1]
  Emax: < 50%
  EC50: ≥ 10 µM
F508delCFTR [2]
  Maximum % activity (with co-corrector): + (<150)
  EC50: ≥ 10 µM

## COc1ccccc1S(=O)(=O)NC(=O)C1CCc2c(Cl)cccc21 (centres unmarked) [III-18]
F508delCFTR [1]
  Emax: < 50%
  EC50: ≥ 10 µM
F508delCFTR [2]
  Maximum % activity (with co-corrector): + (<150)
  EC50: ≥ 10 µM

## Cc1ccc(S(=O)(=O)NC(=O)C2CCc3c(Cl)cccc32)nc1 (centres unmarked) [III-19]
F508delCFTR [1]
  Emax: < 50%
  EC50: ≥ 10 µM
F508delCFTR [2]
  Maximum % activity (with co-corrector): + (<150)
  EC50: ≥ 10 µM

## COc1cccc2c1CCC2C(=O)NS(=O)(=O)c1ccc(O)cc1 (centres unmarked) [III-20]
F508delCFTR [1]
  Emax: < 50%
  EC50: ≥ 10 µM
F508delCFTR [2]
  Maximum % activity (with co-corrector): + (<150)
  EC50: ≥ 10 µM

## COc1cccc2c1CCC2C(=O)NS(=O)(=O)Cc1ccccc1 (centres unmarked) [III-21]
F508delCFTR [1]
  Emax: < 50%
  EC50: ≥ 10 µM
F508delCFTR [2]
  Maximum % activity (with co-corrector): + (<150)
  EC50: ≥ 10 µM

## COc1cccc2c1CCC2C(=O)NS(=O)(=O)c1ccc2cc(O)ccc2c1 (centres unmarked) [III-22]
F508delCFTR [1]
  Emax: < 50%
  EC50: ≥ 10 µM
F508delCFTR [2]
  Maximum % activity (with co-corrector): + (<150)
  EC50: ≥ 10 µM
